Assay results from publication PMC5834492, “Antimycobacterial drug discovery using Mycobacteria-infected amoebae identifies anti-infectives and new molecular targets” (Scientific Reports, 2018).

Tested on: BV2 cells
Details: not given

SMILES	Growth inhibition / Cytotoxicity assays: BV2 cells
Cc1cc(NCCc2ccccc2)nc(/N=C(\N)Nc2ccc(Cl)cc2)n1 [CCI7967]	False
Cc1cc(OCC(=O)NCc2ccccc2)c2cc(Br)ccc2n1 [GSK124576A]	False
O=C(Nc1nnc(-c2ccc(Cl)cc2)o1)c1cccc(C(F)(F)F)c1 [GSK130506A]	False
Cc1cccc(-c2nc(Nc3ccncn3)c3c(C)csc3n2)n1 [GSK163574A]	False
COc1cc(Nc2ccccc2)ccc1NS(=O)(=O)c1c(C)noc1C [GSK270670A]	False
CN1CCN(c2cc(-c3ccc(F)cc3)nc(-c3ccncc3)n2)CC1 [GSK276001A]	False
O=C(Nc1nnc(-c2ccc(Cl)s2)o1)c1ccc(Cl)s1 [GSK316438A]	False
COc1ccc2nc(C)cc(OCC(=O)Nc3ccccc3OC)c2c1 [GSK358607A]	False
CCOc1ccc(OCc2ccc(C(=O)NNC(=O)c3ccc([N+](=O)[O-])o3)cc2)cc1 [GSK426032A]	False

Tested on: M. marinum in A. castellanii
Assay type: cell-based, Mycobacterium marinum
Details: not given

SMILES	Intracellular infection assays: A. castellanii / M. marinum
Cc1cc(NCCc2ccccc2)nc(/N=C(\N)Nc2ccc(Cl)cc2)n1 [CCI7967]	1.16
Cc1cc(OCC(=O)NCc2ccccc2)c2cc(Br)ccc2n1 [GSK124576A]	1.13
O=C(Nc1nnc(-c2ccc(Cl)cc2)o1)c1cccc(C(F)(F)F)c1 [GSK130506A]	1.05
Cc1cccc(-c2nc(Nc3ccncn3)c3c(C)csc3n2)n1 [GSK163574A]	1.13
COc1cc(Nc2ccccc2)ccc1NS(=O)(=O)c1c(C)noc1C [GSK270670A]	1.11
CN1CCN(c2cc(-c3ccc(F)cc3)nc(-c3ccncc3)n2)CC1 [GSK276001A]	1.04
O=C(Nc1nnc(-c2ccc(Cl)s2)o1)c1ccc(Cl)s1 [GSK316438A]	1.32
COc1ccc2nc(C)cc(OCC(=O)Nc3ccccc3OC)c2c1 [GSK358607A]	0.55
CCOc1ccc(OCc2ccc(C(=O)NNC(=O)c3ccc([N+](=O)[O-])o3)cc2)cc1 [GSK426032A]	0.94

Tested on: Mtb H37Rv
Parameters: method as in Sorrentino et al, 2015
Details: ref Sorrentino et al, 2015; cited from earlier work

SMILES	Extracellular MIC90
Cc1cc(NCCc2ccccc2)nc(/N=C(\N)Nc2ccc(Cl)cc2)n1 [CCI7967]	2.4 µM
Cc1cc(OCC(=O)NCc2ccccc2)c2cc(Br)ccc2n1 [GSK124576A]	2.3 µM
O=C(Nc1nnc(-c2ccc(Cl)cc2)o1)c1cccc(C(F)(F)F)c1 [GSK130506A]	5.6 µM
Cc1cccc(-c2nc(Nc3ccncn3)c3c(C)csc3n2)n1 [GSK163574A]	0.3 µM
COc1cc(Nc2ccccc2)ccc1NS(=O)(=O)c1c(C)noc1C [GSK270670A]	6.1 µM
CN1CCN(c2cc(-c3ccc(F)cc3)nc(-c3ccncc3)n2)CC1 [GSK276001A]	7.4 µM
COc1ccc2nc(C)cc(OCC(=O)Nc3ccccc3OC)c2c1 [GSK358607A]	0.4 µM

Tested on: M. marinum luxCDABE
Assay type: cell-based, Mycobacterium marinum
Details: not given

SMILES	Antibiotic assays: M. marinum luxCDABE
Cc1cc(NCCc2ccccc2)nc(/N=C(\N)Nc2ccc(Cl)cc2)n1 [CCI7967]	0.00
Cc1cc(OCC(=O)NCc2ccccc2)c2cc(Br)ccc2n1 [GSK124576A]	0.00
O=C(Nc1nnc(-c2ccc(Cl)cc2)o1)c1cccc(C(F)(F)F)c1 [GSK130506A]	0.00
Cc1cccc(-c2nc(Nc3ccncn3)c3c(C)csc3n2)n1 [GSK163574A]	0.00
COc1cc(Nc2ccccc2)ccc1NS(=O)(=O)c1c(C)noc1C [GSK270670A]	1.00
CN1CCN(c2cc(-c3ccc(F)cc3)nc(-c3ccncc3)n2)CC1 [GSK276001A]	0.63
O=C(Nc1nnc(-c2ccc(Cl)s2)o1)c1ccc(Cl)s1 [GSK316438A]	0.09
COc1ccc2nc(C)cc(OCC(=O)Nc3ccccc3OC)c2c1 [GSK358607A]	0.00
CCOc1ccc(OCc2ccc(C(=O)NNC(=O)c3ccc([N+](=O)[O-])o3)cc2)cc1 [GSK426032A]	0.00

Tested on: Mtb H37Rv in THP-1
Parameters: method as in Sorrentino et al, 2015
Details: THP1 / Mtb H37Rv infection assay; ref Sorrentino et al, 2015; cited from earlier work

SMILES	Intracelullar MIC90 in THP-1
Cc1cc(NCCc2ccccc2)nc(/N=C(\N)Nc2ccc(Cl)cc2)n1 [CCI7967]	0.61 µM
Cc1cc(OCC(=O)NCc2ccccc2)c2cc(Br)ccc2n1 [GSK124576A]	5.55 µM
O=C(Nc1nnc(-c2ccc(Cl)cc2)o1)c1cccc(C(F)(F)F)c1 [GSK130506A]	16.65 µM
Cc1cccc(-c2nc(Nc3ccncn3)c3c(C)csc3n2)n1 [GSK163574A]	50 µM
COc1cc(Nc2ccccc2)ccc1NS(=O)(=O)c1c(C)noc1C [GSK270670A]	50 µM
CN1CCN(c2cc(-c3ccc(F)cc3)nc(-c3ccncc3)n2)CC1 [GSK276001A]	50 µM
O=C(Nc1nnc(-c2ccc(Cl)s2)o1)c1ccc(Cl)s1 [GSK316438A]	>50 µM
COc1ccc2nc(C)cc(OCC(=O)Nc3ccccc3OC)c2c1 [GSK358607A]	1.85 µM
CCOc1ccc(OCc2ccc(C(=O)NNC(=O)c3ccc([N+](=O)[O-])o3)cc2)cc1 [GSK426032A]	>50 µM

Same assay, conditions: ratio; ref Sorrentino et al, 2015; cited from earlier work

SMILES	Extracellular MIC90/ Inracellular MIC90
Cc1cc(NCCc2ccccc2)nc(/N=C(\N)Nc2ccc(Cl)cc2)n1 [CCI7967]	3.93
Cc1cc(OCC(=O)NCc2ccccc2)c2cc(Br)ccc2n1 [GSK124576A]	0.41
O=C(Nc1nnc(-c2ccc(Cl)cc2)o1)c1cccc(C(F)(F)F)c1 [GSK130506A]	0.34
Cc1cccc(-c2nc(Nc3ccncn3)c3c(C)csc3n2)n1 [GSK163574A]	0.01
COc1cc(Nc2ccccc2)ccc1NS(=O)(=O)c1c(C)noc1C [GSK270670A]	0.12
CN1CCN(c2cc(-c3ccc(F)cc3)nc(-c3ccncc3)n2)CC1 [GSK276001A]	0.15
COc1ccc2nc(C)cc(OCC(=O)Nc3ccccc3OC)c2c1 [GSK358607A]	0.22

Tested on: D. discoideum GFP-ABD
Details: not given

SMILES	Growth inhibition / Cytotoxicity assays: D. discoideum GFP-ABD
Cc1cc(NCCc2ccccc2)nc(/N=C(\N)Nc2ccc(Cl)cc2)n1 [CCI7967]	0.89
Cc1cc(OCC(=O)NCc2ccccc2)c2cc(Br)ccc2n1 [GSK124576A]	0.91
O=C(Nc1nnc(-c2ccc(Cl)cc2)o1)c1cccc(C(F)(F)F)c1 [GSK130506A]	1.07
Cc1cccc(-c2nc(Nc3ccncn3)c3c(C)csc3n2)n1 [GSK163574A]	0.81
COc1cc(Nc2ccccc2)ccc1NS(=O)(=O)c1c(C)noc1C [GSK270670A]	0.94
CN1CCN(c2cc(-c3ccc(F)cc3)nc(-c3ccncc3)n2)CC1 [GSK276001A]	0.65
O=C(Nc1nnc(-c2ccc(Cl)s2)o1)c1ccc(Cl)s1 [GSK316438A]	0.70
COc1ccc2nc(C)cc(OCC(=O)Nc3ccccc3OC)c2c1 [GSK358607A]	0.39
CCOc1ccc(OCc2ccc(C(=O)NNC(=O)c3ccc([N+](=O)[O-])o3)cc2)cc1 [GSK426032A]	1.02

Tested on: M. marinum in BV2 microglial cells
Assay type: cell-based, Mycobacterium marinum
Details: not given

SMILES	Intracellular infection assays: BV2 / M. marinum
Cc1cc(NCCc2ccccc2)nc(/N=C(\N)Nc2ccc(Cl)cc2)n1 [CCI7967]	1.01
Cc1cc(OCC(=O)NCc2ccccc2)c2cc(Br)ccc2n1 [GSK124576A]	1.05
O=C(Nc1nnc(-c2ccc(Cl)cc2)o1)c1cccc(C(F)(F)F)c1 [GSK130506A]	1.46
Cc1cccc(-c2nc(Nc3ccncn3)c3c(C)csc3n2)n1 [GSK163574A]	1.25
COc1cc(Nc2ccccc2)ccc1NS(=O)(=O)c1c(C)noc1C [GSK270670A]	1.42
CN1CCN(c2cc(-c3ccc(F)cc3)nc(-c3ccncc3)n2)CC1 [GSK276001A]	1.11
O=C(Nc1nnc(-c2ccc(Cl)s2)o1)c1ccc(Cl)s1 [GSK316438A]	1.30
COc1ccc2nc(C)cc(OCC(=O)Nc3ccccc3OC)c2c1 [GSK358607A]	0.98
CCOc1ccc(OCc2ccc(C(=O)NNC(=O)c3ccc([N+](=O)[O-])o3)cc2)cc1 [GSK426032A]	1.27
